Results: patent publication US20030149235A1, “Targeting peptides” (priority 2000, published 2003)
Entries after “also recorded” stand apart in the source; their conditions may differ. Non-standard residues stand in square brackets, D forms with d. Residues, ends and D or L forms follow the SMILES beside them. *: point of attachment. Nle = CCCC[C@H](N)C(=O)O; Cbz = O=C(OCc1ccccc1)*

Key:
HUVEC = assay: wtAAVegfp transduction, eGFP fluorimetry; assay type: cell-based, human; conditions: 250 transduction units/cell, 40 μM LLnL, 4 μM mg132, 5 μg/ml aphidicolin, 10 μM etoposide
Text: FIG. 6 illustrates the efficiency of AAV-mediated gene transfer to ECs. (A) HUVEC and HeLa cells were mock infected (open bars) or infected with 1000 transduction units/cell of wtAAVegfp (filled bars) and analyzed for eGFP expression by fluorimetry and fluorescence microscopy. (B) ECs were infected with 250 transduction units/cell wtMVegfp in the presence or absence of mg132, LLnL, genistein, hydroxyurea, aphidicolin, etoposide, or camptothecin and harvested for quantification of eGFP by fluorimetry at either 24 h or 96 h postinfection. RFU, relative fluorescent units. *Indicates statistical significance from wtMVegfp alone at the same time point. Representative of three independent experiments;
Cells were plated to reach 80% confluence 24 h later. In each case an accurate cell count was performed immediately before infection. Cells were infected with increasing doses of AAV vectors in the presence or absence of helper adenovirus (Ad) as indicated. For each cell type, Ad co-infection was performed at a dose that mediated 70% transduction, based on prior infection efficiency experiments performed on each cell type using a LacZ-expressing Ad, RAd35. At the required time point, cells were washed and lysed in 0.2% Triton X-100 in PBS and stored at −20° C. For dissection of AAV transduction of EC, cells were incubated with AAV in the absence or presence of 40 μM LLnL, 4 μM mg132, 50 μM genistein, 40 mM hydroxyurea, 5 μg/ml aphidicolin, 10 μM etoposide, 0.1 μM camptothecin or 150 nM bafilomycin A2.
Cells were infected as indicated above in the absence or presence of 1 IU heparin/[…] genomic particles and analyzed for gene expression 72 h later. In addition a column assay was carried out. AAVwt or AAVsig were loaded onto heparin columns (immobilized on cross-linked 4% beaded agarose; Sigma) that had been prepacked and equilibrated according to the manufacturer's recommendations. Purified viral preparations (6.4×10^11 particles) in 200 μl were loaded, and the flow-through, wash, and 1 M NaCl eluates were collected and analyzed by dot-blot hybridization using twofold serial dilutions. For quantification of wtAAVegfp-mediated gene transfer to vascular EC, aliquots of cell extracts were analyzed in triplicate for eGFP expression using a Wallac Victor2 multi-counter with recombinant eGFP (Clontech, Basingstoke, Hants., UK) as a standard. All data were analyzed as eGFP relative light units (RFU)/mg protein. For analysis of AAVsig and AAVwtdriven lacZ expression, aliquots of cell extracts were analyzed for beta-galactosidase expression using Galacto-Light Plus (Tropix, Mass., U.S.A.) as per manufacturer's recommendations using recombinant beta-galactosidase (Sigma, UK) as a standard. All data were expressed as RLU/mg protein.

HEC [1] = assay: Binding of homogenous candidate phage to cells; parameters: species or system human; conditions: 10^7 pfu
Experimental: (§1) 10^7 pfu of homogenous phage populations containing candidate peptides were panned on human endothelial cells (HEC), vascular smooth muscle cells (VSMC) and HepG2 hepatocytes, binding from a control peptide-less phage, subtracted and recovery calculated and expressed as a percentage of HEC;
(§2) Phage libraries were amplified, purified and titered according to manufacturers protocols. HEC were plated into 6 well plates and cultured until 2 days post-confluence. 1×10^9 pfu of input phage library was used to pan confluent cultures of HEC (passage 2-4) in triplicate. First we used a direct screening approach and biopanned HEC for 4 rounds. Second we biopanned on HEC after biopanning for 1 hour on 2 successive cultures of VSMC, HepG2 and peripheral blood mononuclear cells (pre-clearing steps). Prior to biopanning growth media was changed to 1 ml DMEM containing 1% bovine serum albumin (BSA) and the plates were incubated at 4° C. for 15 minutes. For HEC, 1×10^9 pfu of pre-cleared or stock phage library was incubated with cells for 1 hour at 4° C. Cells were washed 5 times in ice-cold PBS/1% BSA for 5 minutes per wash. Weakly associated phage were eluted in 1 ml 0.2 M glycine (pH 2.2) for 10 minutes on ice, followed by neutralisation with 200 μl Tris-HCl (pH 8.0). High affinity phage (tightly-bound phage) were isolated by lysing the cells in 1 ml of 30 mM Tris-HCL/1 mM EDTA (pH 8.0) for 1 hour on ice. Cell debris was removed and the supernatant recovered. Phage were amplified and titered between each round to ensure that 10^9 pfu of input phage were used at the start of each successive round. Following completion of biopanning, E. coli ER2537 were infected with the resulting phage, plated and individual plaques picked, amplified, and sequenced. For further binding studies, high titer homogenous populations of each phage were prepared. Briefly, 1×10^7 pfu of each phage were biopanned on HEC, VSMC and HepG2 cells for 30 minutes at 4° C. […] The percentage recovery was calculated for each cell type using a peptide-less phage to allow for background binding.

HepG2 hepatocytes = assay: Binding of homogenous candidate phage to cells; parameters: species or system human
Experimental: as §1, §2

VSMC = assay: Binding of homogenous candidate phage to cells; parameters: species or system human
Experimental: as §1, §2

HEC [2] = conditions: peptide fused to an antibody against the Ad5 fiber knob; reference [47]; cited from earlier work

Molecule	effect of agent on wtAAVegfp reporter gene expression versus infection without treatment (HUVEC)	further results
C[C@@]1(CO)[C@H](O)CC[C@@]2(C)[C@H]1CC[C@H]1C[C@@H]3C[C@@]12CC[C@]3(O)CO [aphidicolin]	enhanced	–
CCCC[C@@H](C=O)NC(=O)[C@H](CC(C)C)NC(=O)[C@H](CC(C)C)NC(C)=O [LLnL] (Ac-Leu-Leu-[Nle]-aldehyde)	increase	–
COc1cc([C@@H]2c3cc4c(cc3[C@@H](O[C@@H]3O[C@@H]5CO[C@@H](C)O[C@H]5[C@H](O)[C@H]3O)[C@H]3COC(=O)[C@H]23)OCO4)cc(OC)c1O [etoposide]	enhanced	–
SIGYPLP	–	binding to HEC (HEC [1]): high-level binding; binding to HepG2 hepatocytes compared to HEC (HepG2 hepatocytes): limited binding; also recorded: low-level affinity; binding to VSMC compared to HEC (VSMC): limited binding; also recorded: low-level affinity; adenoviral gene transfer into human EC versus non-targeted Ad (HEC [2]): 15 fold
CC(C)C[C@@H](C=O)NC(=O)[C@H](CC(C)C)NC(=O)[C@H](CC(C)C)NC(=O)OCc1ccccc1 [mg132] (Cbz-Leu-Leu-Leu-aldehyde)	increase	–
